Measurements reported in patent US11660319B2, “Compositions comprising bacterial strains” (priority 2017, dated 2023).

Legend:
[1] = molecular target: T1, HDAC2 (Homo sapiens, UniProt Q92769); test: Specific HDAC activity analysis (fluorogenic assay kit, BPS Bioscience); type: biochemical; details: cell free supernatant diluted 1 in 10
T1 construct: purchased BPS Bioscience, CA
Procedure: (§1) Specific HDAC inhibition activity was analysed for HDAC1, 2, 3, 4, 5, 6, 9 using fluorogenic assay kits for each type of HDAC (BPS Bioscience, CA). Assays were conducted according to manufacturer's instructions and each sample were performed in replicates. Cell free supernatants were diluted 1 in 10 and exposed to specific HDAC proteins provided in the kit to maintain consistency between methods.

[2] = molecular target: T2, HDAC1 (Homo sapiens, UniProt Q13547); test: as above; type: biochemical; details: cell free supernatant diluted 1 in 10
T2 construct: purchased BPS Bioscience, CA
Procedure: as §1

[3] = molecular target: T3, HDAC3 (Homo sapiens, UniProt O15379); test: as above; type: biochemical; details: cell free supernatant diluted 1 in 10
T3 construct: purchased BPS Bioscience, CA
Procedure: as §1

[4] = Lipid peroxidation, thiobarbituric reactive substances assay (TBARs); details: positive control butylated hydroxytoluene (1% w/v)
Procedure: Bacterial cells (10^6 or greater) were collected and centrifuged, a wash step was performed with isotonic saline before the pellet was re-suspended in potassium chloride assay buffer. The suspension was sonicated on ice for 10 minutes and then spun down at 10,000×g for 10 minutes. The supernatant was removed and the level of lipid peroxidation evaluated using the thiobarbituric reactive substances assay.

[5] = tested on: HDAC; test: HDAC inhibition on whole HT-29 cells and HT-29 cell lysate; type: cell-based
Procedure: Bacterial culture and cell-free supernatant collection Pure cultures of bacteria were grown anaerobically in YCFA broth until they reached their stationary growth phase. Cultures were centrifuged at 5,000×g for 5 minutes and the cell-free supernatant (CFS) was filtered using a 0.2 μM filter (Millipore, UK). 1 mL aliquots of the CFS were stored at −80° C. until use. Sodium butyrate, hexanoic and valeric acid were obtained from Sigma Aldrich (UK) and suspensions were prepared in YCFA broth.
To investigate which metabolites were responsible for the strain-induced HDAC inhibition, different concentrations of hexanoic acid, valeric acid and sodium butyrate were measured for their HDAC inhibition on whole HT-29 cells and on HT-29 cell lysate.

[6] = tested on: BALBc mice; test: Ex vivo gene expression in colon and ileum of mice fed with bacteria; set-up: species or system mouse
Procedure: Animals were allowed to habituate to their holding room for one week after arrival into the animal unit. They receive oral gavage (200 μL dose) of live biotherapeutics at a dose of 1×10^9 CFU for 6 consecutive days between 15:00 and 17:00. On day 7, the animals are decapitated, and tissues are harvested for experimentation. The in vitro results were compared with data from the ex vivo parallel analysis on the gut of mice fed with […] expression of TJP2 and occludin was quantified in the colon and ileum. […] Total RNA was extracted using the mirVanaTM miRNA Isolation kit (Ambion/Llife technologies, Paisley, UK) and DNase treated (Turbo DNA-free, Ambion/life technologies) according to the manufacturers recommendations. RNA was quantified using NanoDropTM spectrophotometer (Thermo Fisher Scientific Inc., Wilmington, Del., USA) according to the manufacturer's instructions. RNA quality was assessed using the Agilent Bioanalyzer (Agilent, Stockport, UK) according to the manufacturer's procedure and an RNA integrity number (RIN) was calculated. […] RNA was reverse transcribed to cDNA using the Applied Biosystems High Capacity cDNA kit (Applied Biosystems, Warrington, UK) according to manufacturer's instructions. Briefly, Multiscribe Reverse Transcriptase (50 U/μL) (1)(2)(1)(10) was added as part of RT master mix, incubated for 25° C. for 10 min, 37° C. for 2 h, 85° C. for 5 min and stored at 4° C. Quantitative PCR was carried out using probes (6 carboxy fluorescein-FAM) designed by Applied Biosystems to mouse specific targeted genes, while using β-actin as an endogenous control. Amplification reactions contained 1 μl cDNA, 5 μl of the 2× PCR Master mix (Roche), 900 nM of each primer and were brought to a total of 10 μl by the addition of RNase-free water. All reactions were performed in triplicate using 96-well plates on the LightCycler®480 System. Thermal cycling conditions were as recommended by the manufacturer (Roche) for 55 cycles. To check for amplicon contamination, each run contained no template controls in triplicate for each probe used. Cycle threshold (Ct) values were recorded. Data was normalized using β-actin and transformed using the 2-ΔΔCT method and presented as a fold change vs. control group.

[7] = tested on: HT29-mtx epithelial, mucin-producing cell monolayers; test: mRNA expression of tight junction proteins in HT29-mtx (qRT-PCR); type: cell-based; details: 2 h incubation
Procedure: Total RNA was extracted using the RNeasy mini kit (Qiagen, Manchester, JUK) according to the manufacturer's instructions, and the RNA concentration determined by absorbance at 260/280 nm using a spectrophotometer (nano-Drop ND-1000; Thermo Scientific, Wilmington, Del.). For mRNA expression analysis, cDNA was prepared from total RNA using the High-Capacity cDNA reverse transcription kit (Applied Biosystems, UK) according to the manufacturer's instructions. The reverse transcription reactions were performed in a Thermo cycler (Biometra, Germany) at 25° C. for 10 min, 37° C. for 120 min, and 85° C. for 5 min, hold on at 4° C. Resulting cDNA was amplified in duplicates by the SYBR-Green PCR assay, and products were detected on QuantStudio 6 flex real-time PCR machine (Applied Biosystems, UK) using a standardised profile (initial denaturation of 95° C. for 10 minutes, followed by 40 cycles of 15 seconds of denaturation at 95° C. and 60 seconds of annealing/extension at 60/65° C., depending on the primers. A dissociation stage was added after the 40 cycles to generate a melting curve. Analysis was performed using the Applied Biosystems QuantStudio Real-Time PCR Software v1.2. The primer sequences for Actin, Villin, Occludin TJP1 and TJP2 are provided in the sequence listing.

[8] = tested on: BALBc mice; test: Monoamine analysis in brainstem of mice fed with bacteria (HPLC); type: in vivo, mouse; details: 1×10^9 CFU oral gavage 6 days
Procedure: Neurotransmitter concentration was analysed by HPLC on samples from the brainstem. Briefly, brainstem tissue was sonicated in 500 μl of chilled mobile phase spiked with 4 ng/40 μl of N-Methyl 5-HT (Sigma Chemical Co., UK) as internal standard. The mobile phase contained 0.1 M citric acid, 5.6 mM octane-1-sulphonic acid (Sigma), 0.1 M sodium dihydrogen phosphate, 0.01 mM EDTA (Alkem/Reagecon, Cork) and 9% (v/v) methanol (Alkem/Reagecon) and was adjusted to pH 2.8 using 4 N sodium hydroxide (Alkem/Reagecon). Homogenates were then centrifuged for 15 min at 22,000×g at 4° C. and 40 μl of the supernatant injected onto the HPLC system which consisted of a SCL 10-Avp system controller, LECD 6A electrochemical detector (Shimadzu), a LC-10AS pump, a CTO-10A oven, a SIL-10A autoinjector (with sample cooler maintained at 40 C) and an online Gastorr Degasser (ISS, UK). A reverse-phase column (Kinetex 2.6 u C18 100×4.6 mm, Phenomenex) maintained at 30° C. was employed in the separation (Flow rate 0.9 ml/min). The glassy carbon working electrode combined with an Ag/AgCl reference electrode (Shimdazu) operated a +0.8 V and the chromatograms generated were analyzed using Class-VP 5 software (Shimadzu). The neurotransmitters were identified by their characteristic retention times as determined by standard injections, which run at regular intervals during the sample analysis. The ratios of peak heights of analyte versus internal standard were measured and compared with standard injection. Results were expressed as ng of neurotransmitter per g fresh weight of tissue.

[9] = tested on: NFκB promoter; test: NFκB promoter activation in Hek blue TLR4 cells (Quanti Blue); type: cell-based, human; details: 10% bacteria supernatant, 22 h
Procedure: Once grown the Human Hek blue cells were plated in 96 well plates at 25,000 cells/well in 4 replicates. One set of cells were treated with α-synuclein A53T (1 ug/mL) alone or with 10% of bacteria supernatant from MRX0029 for 22 h. The second set of cells were treated with LPS (10 ng/mL, from Salmonella enterica serotype Typhimurium, Sigma Aldrich, cat n. L6143) alone or with 10% of bacteria supernatant from MR029 for 22 h. The cells were subsequently spun down and 20 ul of the supernatant was mixed with 200 ul of Quanti Blue reagent (InvivoGen, cat n. rep-qb2), incubated for 2 h and absorbance read at 655 nm.

T3 sequence (O15379 whole entry): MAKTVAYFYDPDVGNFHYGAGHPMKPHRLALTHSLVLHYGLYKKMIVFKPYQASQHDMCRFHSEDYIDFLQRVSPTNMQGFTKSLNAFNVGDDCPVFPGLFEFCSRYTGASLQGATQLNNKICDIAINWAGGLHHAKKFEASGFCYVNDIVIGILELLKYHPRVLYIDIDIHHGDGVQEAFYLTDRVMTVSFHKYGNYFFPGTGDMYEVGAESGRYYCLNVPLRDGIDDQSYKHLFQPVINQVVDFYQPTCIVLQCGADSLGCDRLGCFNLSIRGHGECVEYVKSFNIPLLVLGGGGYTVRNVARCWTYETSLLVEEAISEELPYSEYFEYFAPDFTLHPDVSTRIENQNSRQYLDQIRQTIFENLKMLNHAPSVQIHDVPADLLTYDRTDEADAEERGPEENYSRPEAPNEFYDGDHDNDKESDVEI
T3 sequence (Q9Y618 395-489 partner limits assumed): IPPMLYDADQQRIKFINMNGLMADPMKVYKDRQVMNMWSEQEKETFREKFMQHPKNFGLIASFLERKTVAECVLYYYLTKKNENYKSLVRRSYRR
T2 sequence (Q13547 whole entry): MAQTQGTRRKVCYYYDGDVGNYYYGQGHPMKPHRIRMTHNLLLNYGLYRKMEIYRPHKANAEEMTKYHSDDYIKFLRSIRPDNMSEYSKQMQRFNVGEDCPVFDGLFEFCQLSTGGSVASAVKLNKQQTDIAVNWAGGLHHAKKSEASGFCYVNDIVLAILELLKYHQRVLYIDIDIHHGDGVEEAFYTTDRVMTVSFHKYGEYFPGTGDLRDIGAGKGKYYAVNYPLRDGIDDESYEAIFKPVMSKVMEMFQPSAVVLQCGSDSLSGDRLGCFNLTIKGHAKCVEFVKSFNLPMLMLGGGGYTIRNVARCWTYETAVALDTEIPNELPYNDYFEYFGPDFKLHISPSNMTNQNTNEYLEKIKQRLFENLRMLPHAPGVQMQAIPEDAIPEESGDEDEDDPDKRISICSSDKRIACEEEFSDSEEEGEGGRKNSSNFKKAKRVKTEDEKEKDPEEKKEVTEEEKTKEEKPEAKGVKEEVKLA
T1 sequence (Q92769 whole entry): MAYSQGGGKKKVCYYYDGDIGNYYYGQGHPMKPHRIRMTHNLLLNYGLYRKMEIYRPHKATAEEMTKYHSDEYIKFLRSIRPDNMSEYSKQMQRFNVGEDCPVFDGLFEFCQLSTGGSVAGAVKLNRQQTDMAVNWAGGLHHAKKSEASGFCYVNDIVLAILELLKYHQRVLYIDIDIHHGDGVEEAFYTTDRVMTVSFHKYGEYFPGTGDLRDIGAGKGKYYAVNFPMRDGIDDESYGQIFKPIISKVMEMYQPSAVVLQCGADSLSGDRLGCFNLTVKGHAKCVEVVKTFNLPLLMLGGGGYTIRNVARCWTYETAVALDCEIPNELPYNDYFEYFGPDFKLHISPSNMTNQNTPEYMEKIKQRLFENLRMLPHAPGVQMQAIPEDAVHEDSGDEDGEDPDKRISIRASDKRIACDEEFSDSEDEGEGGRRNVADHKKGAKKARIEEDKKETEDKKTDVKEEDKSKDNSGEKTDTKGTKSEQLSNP

Q: What does the source list for Megasphaera massiliensis [MRx0029]?
A: HDAC2 inhibition [1]: very potent inhibitor; HDAC1 inhibition [2]: very potent inhibitor; HDAC3 inhibition [3]: very potent inhibitor; inhibition of lipid peroxidation [4]: approximately 20%; HDAC inhibition, HT29 cell lysate ([5]; HT-29 cell lysate): strong HDAC inhibition; HDAC inhibition, HT29 whole cell ([5]; whole HT-29 cells): strong HDAC inhibition; expression tryptophan hydroxylase-1 (Tph1) ([6]; colon): significantly increase; TJP1 expression in colon ([6]; colon region of the murine intestine): significantly up-regulate; Occludin expression in colon ([6]; colon region of the murine intestine, p=0.073): significantly up-regulate; Occludin mRNA expression [7]: enhanced; Tight Junction Protein 1 (TJP1) mRNA expression [7]: enhanced; Tight Junction Protein 2 (TJP2) mRNA expression [7]: enhanced; Vlillin mRNA expression [7]: enhanced; 5-HIAA in brain [8]: slight increase; serotonin in brain [8]: slight increase; noradrenaline levels in brain ([8]; p=0.0507): increased; activation of the NFκB promoter by LPS ([9]; LPS 10 ng/mL): inhibited; activation of the NFκB promoter by α-synuclein ([9]; α-synuclein A53T 1 ug/mL): not inhibited
